This passage reports MIC results from ChEMBL document CHEMBL3297661, “1-Substituted-5-[(3,5-dinitrobenzyl)sulfanyl]-1H-tetrazoles and their isosteric analogs: A new class of selective antitubercular agents active against drug-susceptible and multidrug-resistant mycobacteria” (Eur J Med Chem, 2014).

Type in all cases: functional
Test [1] deals with Mycobacterium kansasii. The test is described as follows: Antimycobacterial activity against Mycobacterium kansasii CNCTC My 235/80 after 21 days by micromethod. The settings on record: CNCTC My 235/80, 504 h.
Test [2] relates to Mycobacterium tuberculosis. Nature of the test: Antimycobacterial activity against Mycobacterium tuberculosis CNCTC My 331/88 after 21 days by micromethod. The settings on record: CNCTC My 331/88, 504 h.
Test [3] relates to Mycobacterium avium. The test is described as follows: Antimycobacterial activity against Mycobacterium avium CNCTC My 330/88 after 21 days by micromethod. The settings on record: CNCTC My 330/88, 504 h.
In test [4] the test system is Mycobacterium kansasii. The test is described as follows: Antimycobacterial activity against Mycobacterium kansasii 6509/96 after 7 days by micromethod. The settings on record: 6509/96, 168 h.
The test system of test [5] is Mycobacterium kansasii. Nature of the test: Antimycobacterial activity against Mycobacterium kansasii CNCTC My 235/80 after 14 days by micromethod. As to conditions: CNCTC My 235/80, 336 h.
Test [6] has as its system Mycobacterium avium. Nature of the test: Antimycobacterial activity against Mycobacterium avium CNCTC My 330/88 after 14 days by micromethod. As to conditions: CNCTC My 330/88, 336 h.
Test [7] relates to Mycobacterium tuberculosis. The test is described as follows: Antimycobacterial activity against Mycobacterium tuberculosis CNCTC My 331/88 after 14 days by micromethod. The settings on record: CNCTC My 331/88, 336 h.
Test [8] has as its system Mycobacterium kansasii. Nature of the test: Antimycobacterial activity against Mycobacterium kansasii CNCTC My 235/80 after 7 days by micromethod. As to conditions: CNCTC My 235/80, 168 h.
Test [9] relates to Mycobacterium kansasii. The test is described as follows: Antimycobacterial activity against Mycobacterium kansasii 6509/96 after 14 days by micromethod. The settings on record: 6509/96, 336 h.
Test [10] relates to Mycobacterium kansasii. Nature of the test: Antimycobacterial activity against Mycobacterium kansasii 6509/96 after 21 days by micromethod. The settings on record: 6509/96, 504 h.

≈ marks a conversion by molar mass, not a printed value.

As to `O=[N+]([O-])c1cc(CSc2nnn[nH]2)cc([N+](=O)[O-])c1`, the MIC in [1] was determined as 1000 µM (≈ 282 µg/mL); in [2] it was 1000 µM (≈ 282 µg/mL); in test [3], 1000 µM (≈ 282 µg/mL); in test [4] it was 250 µM (≈ 70.6 µg/mL); in test [5] it was 1000 µM (≈ 282 µg/mL); in test [6], 1000 µM (≈ 282 µg/mL). The minimal inhibitory concentration (MIC) in test [7] worked out at 1000 µM (≈ 282 µg/mL); in test [8] it was 250 µM (≈ 70.6 µg/mL); in test [9], 500 µM (≈ 141 µg/mL); in test [10], 500 µM (≈ 141 µg/mL).
On to `O=[N+]([O-])c1cc(CSc2nnnn2-c2ccc(Br)cc2)cc([N+](=O)[O-])c1`, for which the MIC in [1] amounted to 2 µM (≈ 0.874 µg/mL); in test [2], 1 µM (≈ 0.437 µg/mL); in test [3], 125 µM (≈ 54.7 µg/mL); in test [4], 2 µM (≈ 0.874 µg/mL); in test [5], 2 µM (≈ 0.874 µg/mL); in [6] it was 125 µM (≈ 54.7 µg/mL). Further, the MIC amounted to 1 µM (≈ 0.437 µg/mL) in test [7], 1 µM (≈ 0.437 µg/mL) in test [8], 4 µM (≈ 1.75 µg/mL) in test [9] and 4 µM (≈ 1.75 µg/mL) in [10].
Take `O=[N+]([O-])c1ccc(-n2nnnc2SCc2ccccc2)cc1`: the MIC was 32 µM (≈ 10 µg/mL) in test [1]; 125 µM (≈ 39.2 µg/mL) in [2]; 62 µM (≈ 19.4 µg/mL) in test [3]; 16 µM (≈ 5.01 µg/mL) in [4]; 32 µM (≈ 10 µg/mL) in test [5]; 62 µM (≈ 19.4 µg/mL) in test [6]. The minimum inhibitory concentration (MIC) in [7] was determined as 125 µM (≈ 39.2 µg/mL); in test [8] it was 16 µM (≈ 5.01 µg/mL); in test [9], 62 µM (≈ 19.4 µg/mL); in test [10] it was 62 µM (≈ 19.4 µg/mL).
For `O=[N+]([O-])c1cc(CS(=O)(=O)c2nnnn2-c2ccccc2)cc([N+](=O)[O-])c1`, the MIC came out at 62 µM (≈ 24.2 µg/mL) in [1]; 8 µM (≈ 3.12 µg/mL) in [2]; 125 µM (≈ 48.8 µg/mL) in [3]; 32 µM (≈ 12.5 µg/mL) in [4]; 62 µM (≈ 24.2 µg/mL) in test [5]; 62 µM (≈ 24.2 µg/mL) in test [6]. Besides, the MIC in test [7] was found to be 8 µM (≈ 3.12 µg/mL); in test [8], 32 µM (≈ 12.5 µg/mL); in test [9], 62 µM (≈ 24.2 µg/mL); in test [10], 62 µM (≈ 24.2 µg/mL).
Regarding `O=[N+]([O-])c1ccc(CSc2nnnn2-c2ccc([N+](=O)[O-])cc2)cc1`, the MIC in test [1], in test [2], in test [3], in [4], in test [5] and in test [6] was 250 µM (≈ 89.6 µg/mL) in each case. The MIC in test [7], in test [8], in test [9] and in [10] was 250 µM (≈ 89.6 µg/mL) each time.
In the case of `COC(=O)c1cccc(-n2nnnc2SCc2cc([N+](=O)[O-])cc([N+](=O)[O-])c2)c1`, the MIC in test [1] worked out at 500 µM (≈ 208 µg/mL); in [2], 16 µM (≈ 6.66 µg/mL); in test [3], 250 µM (≈ 104 µg/mL); in [4], 500 µM (≈ 208 µg/mL); in [5], 500 µM (≈ 208 µg/mL); in test [6] it was 250 µM (≈ 104 µg/mL). For the same compound, the MIC in [7] worked out at 8 µM (≈ 3.33 µg/mL); in test [8], 500 µM (≈ 208 µg/mL); in test [9] it was 500 µM (≈ 208 µg/mL); in test [10], 500 µM (≈ 208 µg/mL).
Consider `COc1cc(-n2nnnc2OCc2cc([N+](=O)[O-])cc([N+](=O)[O-])c2)cc(OC)c1OC`, for which the minimal inhibitory concentration (MIC) stood at 32 µM (≈ 13.8 µg/mL) in [1]; 16 µM (≈ 6.92 µg/mL) in test [2]; 32 µM (≈ 13.8 µg/mL) in test [3]; 16 µM (≈ 6.92 µg/mL) in test [4]; 16 µM (≈ 6.92 µg/mL) in test [5]; 32 µM (≈ 13.8 µg/mL) in test [6]. Moreover, the MIC came out at 16 µM (≈ 6.92 µg/mL) in test [7], 8 µM (≈ 3.46 µg/mL) in test [8], 32 µM (≈ 13.8 µg/mL) in [9] and 62 µM (≈ 26.8 µg/mL) in [10].
Turning to `CCCCCCn1nnnc1SCc1cc([N+](=O)[O-])cc([N+](=O)[O-])c1`, the MIC worked out at 8 µM (≈ 2.93 µg/mL) in [1]; 2 µM (≈ 0.733 µg/mL) in test [2]; 62 µM (≈ 22.7 µg/mL) in test [3]; 2 µM (≈ 0.733 µg/mL) in test [4]; 4 µM (≈ 1.47 µg/mL) in [5]; 32 µM (≈ 11.7 µg/mL) in test [6]. Moreover, the MIC in [7] was determined as 1 µM (≈ 0.366 µg/mL); in test [8], 2 µM (≈ 0.733 µg/mL); in test [9], 4 µM (≈ 1.47 µg/mL); in [10], 8 µM (≈ 2.93 µg/mL).
Take `O=[N+]([O-])c1cc(CSc2ccccc2)cc([N+](=O)[O-])c1`: the MIC is 250 µM (≈ 72.6 µg/mL) in [1]; 250 µM (≈ 72.6 µg/mL) in [2]; 250 µM (≈ 72.6 µg/mL) in [3]; 500 µM (≈ 145 µg/mL) in test [4]; 250 µM (≈ 72.6 µg/mL) in test [5]; 250 µM (≈ 72.6 µg/mL) in test [6]. Also, the MIC in test [7] turned out to be 250 µM (≈ 72.6 µg/mL); in test [8] it was 250 µM (≈ 72.6 µg/mL); in test [9] it was 500 µM (≈ 145 µg/mL); in test [10] it was 500 µM (≈ 145 µg/mL).
With `COc1cc(-n2nnnc2SCc2cc([N+](=O)[O-])cc([N+](=O)[O-])c2)cc(OC)c1OC`, the minimal inhibitory concentration (MIC) was 32 µM (≈ 14.3 µg/mL) in test [1]; 16 µM (≈ 7.17 µg/mL) in [2]; 250 µM (≈ 112 µg/mL) in test [3]; 16 µM (≈ 7.17 µg/mL) in [4]; 32 µM (≈ 14.3 µg/mL) in [5]; 250 µM (≈ 112 µg/mL) in test [6]. Also, the minimal inhibitory concentration (MIC) in test [7] turned out to be 16 µM (≈ 7.17 µg/mL); in test [8] it was 16 µM (≈ 7.17 µg/mL); in test [9], 16 µM (≈ 7.17 µg/mL); in [10], 32 µM (≈ 14.3 µg/mL).
Consider `NNC(=O)c1ccncc1` [ISONIAZID], for which the MIC was 1 µM (≈ 0.137 µg/mL) in test [2]; greater than 250 µM in [3]; 4 µM (≈ 0.549 µg/mL) in test [4]; greater than 250 µM in [5]; greater than 250 µM in test [6]; 0.5 µM (≈ 0.0686 µg/mL) in test [7]. The MIC was greater than 250 µM in [8], 4 µM (≈ 0.549 µg/mL) in test [9] and 4 µM (≈ 0.549 µg/mL) in test [10].
